# Patent publication US20110319392A1, “Thiazole Sulfonamide And Oxazole Sulfonamide Kinase Inhibitors” (priority 2009, published 2011)
# Tests used:
# BT474 tumor cells = assay: Cell growth inhibition assay (CellTiter-Glo), BT474; assay type: cell-based, Human; details: Homo sapiens, BT-474, 72 h, 3 days incubation
# HN5 tumor cells = assay: Cell growth inhibition assay (CellTiter-Glo), HN5; assay type: cell-based, Human; details: Homo sapiens, 72 h; 3 days incubation
# Summary of the method: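 Readout was CellTiter-Glo luminescence (total ATP, surrogate for cell number) after 3-day exposure at 37° C, 5% CO2 to 1:3 serial compound dilutions in 0.2% final DMSO. Seeding was 500 cells/well; IC50 derived by 4-parameter fit relative to vehicle-treated wells.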
# B-Raf = B-Raf (Homo sapiens, UniProt P15056); assay: B-Raf Accelerated MEK ATPase assay (BRAMA), Method A or B; assay type: biochemical
# Summary of the method: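 Activated Raf plus non-phosphorylated MEK drives MEK-mediated ATP hydrolysis; ADP formation coupled via pyruvate kinase/lactate dehydrogenase to NADH oxidation. Method A read kinetically; Method B used 150 nM final MEK and a single end-point read.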
# [1] = Method B: final MEK 150 nM, single end point read
# Sequence of B-Raf (P15056 whole entry): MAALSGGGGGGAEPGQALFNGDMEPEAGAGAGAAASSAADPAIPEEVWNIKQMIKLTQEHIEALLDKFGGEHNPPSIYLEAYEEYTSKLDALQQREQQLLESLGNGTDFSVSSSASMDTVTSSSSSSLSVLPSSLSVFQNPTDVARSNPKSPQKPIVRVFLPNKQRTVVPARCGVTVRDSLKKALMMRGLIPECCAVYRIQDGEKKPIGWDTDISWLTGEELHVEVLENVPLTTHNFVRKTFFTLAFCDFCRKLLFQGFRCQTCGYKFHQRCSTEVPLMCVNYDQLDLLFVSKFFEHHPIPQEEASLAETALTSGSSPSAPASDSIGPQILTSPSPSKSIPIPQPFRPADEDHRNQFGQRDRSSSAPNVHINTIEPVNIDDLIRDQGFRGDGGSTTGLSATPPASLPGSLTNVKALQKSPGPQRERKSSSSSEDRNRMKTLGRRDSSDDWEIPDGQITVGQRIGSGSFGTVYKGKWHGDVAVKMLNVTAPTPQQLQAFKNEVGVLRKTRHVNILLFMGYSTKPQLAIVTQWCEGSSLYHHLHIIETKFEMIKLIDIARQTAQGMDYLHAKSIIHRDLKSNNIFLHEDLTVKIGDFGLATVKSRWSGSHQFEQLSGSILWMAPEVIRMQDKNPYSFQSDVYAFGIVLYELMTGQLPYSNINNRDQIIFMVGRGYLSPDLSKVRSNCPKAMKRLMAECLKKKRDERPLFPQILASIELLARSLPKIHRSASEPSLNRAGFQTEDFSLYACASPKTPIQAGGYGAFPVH
IC50 (BT474 tumor cells) [nM],IC50 (HN5 tumor cells) [nM],IC50 (B-Raf; [1]) [nM],IC50 (B-Raf; Method A) [nM],SMILES
> 1000,> 1000,< 100,,COc1cc(N2CCN(CCF)CC2)ccc1Nc1nccc(-c2sc(C(C)C)nc2-c2cccc(NS(=O)(=O)c3c(F)cccc3F)c2)n1 [Example 79]
> 1000,100 to 1000,< 100,,CC(C)c1nc(-c2cccc(NS(=O)(=O)c3c(F)cccc3F)c2)c(-c2ccnc(Nc3ccc(N4CCCN(CCS(C)(=O)=O)CC4)nc3)n2)s1 [Example 88]
> 1000,100 to 1000,< 100,,CC(=O)N1CCN(c2ccc(Nc3nccc(-c4sc(C(C)C)nc4-c4cccc(NS(=O)(=O)c5cc(F)ccc5F)c4)n3)cn2)CC1 [Example 96]
> 1000,100 to 1000,< 100,,CC(C)c1nc(-c2cccc(NS(=O)(=O)c3c(F)cccc3F)c2)c(-c2ccnc(Nc3ccc(N4CCN(CCO)CC4)nc3)n2)s1 [Example 80]
,100 to 1000,< 100,,CC(C)c1nc(-c2cc(F)cc(NS(=O)(=O)c3c(F)cccc3F)c2)c(-c2ccnc(Nc3ccc(N4CCOCC4)c(F)c3)n2)s1 [Example 85]
> 1000,100 to 1000,< 100,,CC(C)c1nc(-c2ccc(F)c(NS(=O)(=O)c3c(F)cccc3F)c2)c(-c2ccnc(Nc3ccc(N4CCN(CCS(C)(=O)=O)CC4)c(F)c3)n2)s1 [Example 95]
> 1000,100 to 1000,< 100,,CC(C)c1nc(-c2cc(F)cc(NS(=O)(=O)c3c(F)cccc3F)c2)c(-c2ccnc(Nc3ccc(N4CCOCC4)nc3)n2)s1 [Example 84]
> 1000,100 to 1000,< 100,,CC(C)c1nc(-c2cccc(NS(=O)(=O)c3c(F)cccc3F)c2)c(-c2ccnc(Nc3cccc(N4CCN(C)CC4)c3)n2)s1 [Example 81]
> 1000,> 1000,< 100,,CC(C)c1nc(-c2cccc(NS(=O)(=O)c3ccccc3)c2)c(-c2ccnc(Nc3ccc(N4CCN(CCS(C)(=O)=O)CC4)c(F)c3F)n2)s1 [Example 74]
> 1000,100 to 1000,< 100,,CC(=O)N1CCc2cc(Nc3nccc(-c4sc(C(C)C)nc4-c4cccc(NS(=O)(=O)c5ccccc5)c4)n3)ccc21 [Example 71]
> 1000,> 1000,< 100,,Cc1cc(N2CCC(N3CCCCC3)CC2)ccc1Nc1nccc(-c2sc(C(C)C)nc2-c2cccc(NS(=O)(=O)c3c(F)cccc3F)c2)n1 [Example 91]
> 1000,> 1000,< 100,,CC(C)c1nc(-c2cccc(NS(=O)(=O)c3c(F)cccc3F)c2)c(-c2ccnc(Nc3cc(F)c(N4CCN(CCS(C)(=O)=O)CC4)cc3F)n2)s1 [Example 87]
> 1000,100 to 1000,< 100,,CC(C)c1nc(-c2cccc(NS(=O)(=O)c3ccccc3)c2)c(-c2ccnc(Nc3ccc(CC4CCN(CCS(C)(=O)=O)CC4)c(F)c3)n2)s1 [Example 72]
> 1000,100 to 1000,,100 to 1000,CCc1nc(-c2cccc(NS(=O)(=O)c3ccccc3)c2)c(-c2ccnc(Nc3ccc(N4CCOCC4)c(F)c3)n2)s1 [Example 4]
> 1000,100 to 1000,< 100,,CC(C)c1nc(-c2cccc(NS(=O)(=O)c3c(F)cccc3F)c2)c(-c2ccnc(Nc3ccc(N4CCCNCC4)nc3)n2)s1 [Example 82]
> 1000,> 1000,< 100,,C=C(C)c1nc(-c2cccc(NS(=O)(=O)c3c(F)cccc3F)c2)c(-c2ccnc(Nc3ccc(N4CCN(CCF)CC4)c(F)c3)n2)s1 [Example 93]
100 to 1000,100 to 1000,,< 100,"CCc1nc(-c2cccc(NS(=O)(=O)c3ccccc3)c2)c(-c2ccnc(Nc3ccc(OC)c(N4CCN(CCS(C)(=O)=O)CC4)c3)n2)s1 [Example 5, N-[3-(2-Ethyl-5-{2-[(4-(methyloxy)-3-{4-[2-(methylsulfonyl)ethyl]-1-piperazinyl}phenyl)amino]-4-pyrimidinyl}-1,3-thiazol-4-yl)phenyl]benzenesulfonamide]"
> 1000,> 1000,< 100,,"CCc1nc(-c2cccc(NS(=O)(=O)c3ccccc3)c2)c(-c2ccnc(Nc3ccc(N4CCN(C(C)=O)CC4)nc3)n2)s1 [Example 3, N-{3-[5-(2-{[6-(4-Acetyl-1-piperazinyl)-3-pyridinyl]amino}-4-pyrimidinyl)-2-ethyl-1,3-thiazol-4-yl]phenyl}benzenesulfonamide]"
> 1000,100 to 1000,< 100,,CC(C)c1nc(-c2cc(F)cc(NS(=O)(=O)c3ccc(F)cc3)c2)c(-c2ccnc(Nc3ccc(N4CCOCC4)c(F)c3)n2)s1 [Example 83]
> 1000,100 to 1000,< 100,,CC(C)c1nc(-c2cccc(NS(=O)(=O)c3ccccc3)c2)c(-c2ccnc(Nc3ccc(F)c(N4CCN(CCS(C)(=O)=O)CC4)c3)n2)s1 [Example 73]
> 1000,100 to 1000,< 100,,CC(C)c1nc(-c2cccc(NS(=O)(=O)c3c(F)cccc3F)c2)c(-c2ccnc(Nc3ccc(N4CC[C@@H](O)C4)nc3)n2)s1 [Example 89]
> 1000,> 1000,< 100,,CC(C)c1nc(-c2cccc(NS(=O)(=O)c3c(F)cccc3F)c2)c(-c2ccnc(Nc3ccc(N4CCN(C(C)C)CC4)cc3O)n2)s1 [Example 78]
> 1000,100 to 1000,< 100,,CC(C)c1nc(-c2cccc(NS(=O)(=O)c3ccccc3)c2)c(-c2ccnc(Nc3ccc(N4CCOCC4)cn3)n2)s1 [Example 92]
